Assay results published in US11504367B2, “Compounds and methods for treating oxalate-related diseases” (OxaluRx, Inc., priority 2019, dated 2022).

Assays:
[1] = target: recombinant full-length human hydroxyacid oxidase 1 (HAO1), the equivalents of hGOX (Homo sapiens (Human), UniProt Q9UJM8); experiment: In-vitro human glycolate oxidase (hGOX) assay (Amplex red fluorescence); type: biochemical; settings: 6 nM recombinant human GO, 85 μM glycolate, 10 min preincubation
Outline: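 Activity was read as Amplex Red fluorescence (560/590 nm), with 50 μM reagent added after a 10 min room-temperature incubation. The enzyme, full-length human HAO1, was in pH 7.4 HEPES buffer containing KCl, NaCl, MgCl2 and 0.01% Triton X-100.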

[2] = In-vivo pharmacokinetic evaluation (exposure, AUC fold-over Example 1); settings: male CD-1 mice, 10 mg/kg oral gavage in 20% (2-Hydroxypropyl)-β-cyclodextrin, plasma at 0.5, 2 and 6 hours post-dose; AUC expressed as fold-over Example 1
Procedure: In-vivo exposure of test compounds was determined in 5-6 week old male CD-1 mice. Mice (n=2/compound) received 10 mg/kg of each compound formulated in 20% (2-Hydroxypropyl)-β-cyclodextrin (10 μL/g) by oral gavage. At 0.5 hours, 2 hours, and 6 hours post-dose, blood samples were collected from the submandibular vein using EDTA as an anticoagulant and stored on ice. Plasma samples were obtained by centrifugation at 4° C. and were analyzed immediately or stored at −20° C. until analysis. Compounds were extracted from mouse plasma with acetonitrile and quantified by LC-MS-MS in the negative ion mode using a standard curve.

[3] = Alternate plasma stability assay; type: in vitro ADME, human, dog, mouse; settings: 5 μM
Procedure: Plasma stability. Stock compounds were prepared for testing the stability in human (BioIVT, #BRH1589665), dog (BioIVT, #BGL102122) and mouse (BioIVT, #MSE37887) plasma. 1 mM test compound working solution was prepared in DMSO. A one mM propantheline working solution was prepared in acetonitrile. Propantheline was used as a positive control for human, dog, and mouse plasma in this assay.
Plasma (398 μL) for each compound was added into an incubation plate, and the plate was pre-warmed for 15 minutes at 37° C. The reaction was initiated upon addition of 2 μL of 1 mM working solution (test compounds or control compound) to the plasma to reach a final concentration of 5 μM. The reaction was incubated at 37° C. Aliquots of 50 μL were taken from the reaction samples at 0 and 60 minutes. Adding 450 μL cold acetonitrile containing internal standards stopped the reaction. Once the reaction was stopped, the samples were vortexed for 10 minutes, followed by centrifugation at 3,220 g for 40 minutes to precipitate proteins. The supernatant (100 μL) was transferred to a new plate and diluted with ultrapure water according to the LC-MS signal response and peak shape. Samples were analyzed by LC-MS/MS.

[4] = Alternate liver microsome metabolic stability assay; type: in vitro ADME, human, monkey, dog, rat, mouse; settings: liver microsomes, 1 μM, at 30 minutes, all species tested
Procedure: Metabolic Stability. For evaluating the metabolic stability in liver microsomal preparations, two buffers were prepared. Buffer A consisted of 10 mM NADPH and 0.5 mg/mL microsomes in 100 mM of phosphate buffer. Buffer B consisted of 0.5 mg/mL microsomes in 100 mM of phosphate buffer. The reference compound (verapamil) and test compound were prepared as 100 μM DMSO stocks. The source of liver microsomes was as follows: Human (BD Gentest, #452117), monkey (RILD, #LM-SXH-02M), dog (BD, #452601), Rat (BioIVT, #M00001), and mouse (BioIVT, #M00501).
The reaction was started by adding 2.5 μL of 100 μM control compound or test compound solutions to 216.25 μL of prewarmed (37° C.) assay buffer. The final concentration of the control compound and test compounds were 1 μM. […] The reaction was stopped by adding 5 volumes of cold acetonitrile with internal standards (100 nM alprazolam, 200 nM caffeine, and 100 nM tolbutamide). Samples were centrifuged at 3,220 g for 30 minutes. An aliquot of 100 μL of the supernatant was mixed with 100 μL of ultra-pure water and then used for LC-MS/MS analysis.

Caco-2 cell monolayers = experiment: Alternate Caco-2 permeability assay; type: in vitro ADME; settings: alternate Caco-2 assay, 10 μM, 2 hours
Procedure: A working solution for the Caco-2 permeability assay was prepared by diluting test compound stock solutions (2 mM in DMSO) with HBSS (10 mM, pH 7.4) to 10 μM working solution. Metoprolol, erythromycin, and cimetidine were used as the control compounds.
To determine the rate of drug transport in the apical-to-basolateral direction (A-B), 125 μL of the working solution was added to the Transwell insert (apical compartment). 50 μL of each sample was immediately transferred from the apical compartment to 200 μL of acetonitrile containing internal standards (100 nM alprazolam, 200 nM caffeine, and 100 nM tolbutamide) in a new 96-well plate as the initial donor sample (A-B). Samples were vortexed at 1000 rpm for 10 minutes, and the wells in the receiver plate (basolateral compartment) were subsequently filled with 235 μL of transport buffer. Plates were incubated at 37° C. for 2 hours.
To determine the rate of drug transport in the basolateral-to-apical direction (B-A), 285 μL of the working solution was added to the receiver plate wells (basolateral compartment). 50 μL of each sample was transferred immediately from the basolateral compartment to 200 μL of acetonitrile containing internal standards (100 nM alprazolam, 200 nM Caffeine, and 100 nM tolbutamide) in a new 96-well plate as the initial donor sample (B-A). Samples were vortexed at 1000 rpm for 10 minutes, and 75 μL of transport buffer was added to the Transwell insert (apical compartment). Plates were incubated at 37° C. for 2 hours. […]
To determine the Lucifer Yellow leakage after 2 hour transport period, the stock solution of Lucifer yellow was prepared in DMSO and diluted with HBSS (10 mM HEPES, pH 7.4) to reach the final concentration of 100 μM. […] The Lucifer Yellow fluorescence (to monitor monolayer integrity) signal was measured in a fluorescence plate reader at 480 nm excitation and 530 nm emission.

recombinant full-length human hydroxyacid oxidase 1 (HAO1), the equivalents of hGOX, sequence (Q9UJM8 whole entry): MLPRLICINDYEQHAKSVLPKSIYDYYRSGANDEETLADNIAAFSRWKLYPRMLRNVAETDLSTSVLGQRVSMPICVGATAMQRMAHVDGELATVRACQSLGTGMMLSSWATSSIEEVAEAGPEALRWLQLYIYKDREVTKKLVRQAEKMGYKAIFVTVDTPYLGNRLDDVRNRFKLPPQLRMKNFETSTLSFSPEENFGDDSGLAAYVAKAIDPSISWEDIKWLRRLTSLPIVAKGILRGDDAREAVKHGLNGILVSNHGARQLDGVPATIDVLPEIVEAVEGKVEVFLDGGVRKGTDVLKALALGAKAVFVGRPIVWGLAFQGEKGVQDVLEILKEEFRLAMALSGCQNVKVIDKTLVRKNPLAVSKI

Structure (SMILES)	IC50 [1] [nM]	AUC Fold over Ex. 1 [2]	plasma stability half-life (compared with Example 1) [3]	compound remained intact [4] [%]	Papp Efflux Ratio (Caco-2 cell monolayers)
CS(=O)(=O)c1ccc(C#Cc2cccc(Oc3[nH]nnc3C(=O)O)c2)cc1 [Example 255, 5-(3-(2-(4-(Methylsulfonyl)phenyl)ethynyl)phenoxy)-1H-1,2,3-triazole-4-carboxylic Acid]	8	0.1	similarly long or longer half-lives	100	
O=C(O)c1nn[nH]c1Oc1cccc(C#CCC2CC2)c1 [Example 302, 5-(3-(3-Cyclopropylprop-1-ynyl)phenoxy)-1H-1,2,3-triazole-4-carboxylic Acid]	13	4.1	similarly long or longer half-lives	100	single digits
O=C(O)c1nn[nH]c1Oc1ccc(C#CC2CC2)cc1 [Example 20, 5-(4-(2-Cyclopropylethynyl)phenoxy)-1H-1,2,3-triazole-4-carboxylic Acid]	11	0.8			
N#Cc1ccc(C#Cc2cc(Oc3[nH]nnc3C(=O)O)ccc2F)cc1 [Example 268, 4-(3-((4-Cyanophenyl)ethynyl)-4-fluorophenoxy)-1H-1,2,3-triazole-5-carboxylic Acid]	1	0.3			
CC(C)(C)C#Cc1cccc(Oc2[nH]nnc2C(=O)O)c1 [Example 17, 5-(3-(3,3-Dimethylbut-1-ynyl)phenoxy)-1H-1,2,3-triazole-4-carboxylic Acid]	42	1.3			
CS(=O)(=O)c1ccc(C#Cc2ccc(Oc3[nH]nnc3C(=O)O)cc2)cc1 [Example 190, 5-(4-(2-(4-(Methylsulfonyl)phenyl)ethynyl)phenoxy)-1H-1,2,3-triazole-4-carboxylic Acid]	3		similarly long or longer half-lives		
O=C(O)c1nn[nH]c1Oc1cccc(C#CC2CCCC2)c1 [Example 29, 5-(3-(2-Cyclopentylethynyl)phenoxy)-1H-1,2,3-triazole-4-carboxylic Acid]	10	2.5			
O=C(O)c1nn[nH]c1Oc1cccc(C#CC2CC2)c1 [Example 21, 5-(3-(2-Cyclopropylethynyl)phenoxy)-1H-1,2,3-triazole-4-carboxylic Acid]	9	2.5			

Next, values leading:

IC50 [1] [nM]	AUC Fold over Ex. 1 [2]	plasma stability half-life (compared with Example 1) [3]	compound remained intact [4] [%]	Papp Efflux Ratio (Caco-2 cell monolayers)	Structure (SMILES)
10	4.3	similarly long or longer half-lives	100	single digits	CC(C)CC#Cc1cccc(Oc2[nH]nnc2C(=O)O)c1 [Example 343, 5-(3-(4-Methylpent-1-ynyl)phenoxy)-1H-1,2,3-triazole-4-carboxylic Acid]
6	7.4			single digits	O=C(O)c1nn[nH]c1Sc1cccc(C#CCC2CC2)c1 [Example 356, 5-(3-(3-Cyclopropylprop-1-ynyl)phenylthio)-1H-1,2,3-triazole-4-carboxylic Acid]
2	0.3				Cn1ncc2c(C#Cc3cccc(Oc4[nH]nnc4C(=O)O)c3)cccc21 [Example 315, 5-(3-(2-(1-Methyl-1H-indazol-4-yl)ethynyl)phenoxy)-1H-1,2,3-triazole-4-carboxylic Acid]
16	0.7				O=C(O)c1nn[nH]c1Oc1cccc(C#CCC(F)(F)F)c1 [Example 306, 5-(3-(4,4,4-Trifluorobut-1-ynyl)phenoxy)-1H-1,2,3-triazole-4-carboxylic Acid]
3	0.2				O=C(O)c1nn[nH]c1Oc1cccc(C#Cc2cccnc2)c1 [Example 312, 5-(3-(2-(Pyridin-3-yl)ethynyl)phenoxy)-1H-1,2,3-triazole-4-carboxylic Acid]
